Measured values from patent US20210393645A1, “TREATMENT FOR PROGRESSIVE MULTIPLE SCLEROSIS” (UTI LIMITED PARTNERSHIP, priority 2016, published 2021).
Counter-ions that a name gives are not always drawn.

Experiments:
T-lymphocytes = assay: Cell cycle analysis of activated splenocytes by flow cytometry (propidium iodide); type: cell-based, mouse
Experimental: Two days after activation and drug treatment splenocytes were harvested, washed with PBS followed by resuspension in PBS with 2% FBS. Cell cycle analysis was performed taking advantage of propidium iodide staining (50 μg/ml) using an established protocol (Besson and Yong, 2000). Cells were washed in cold PBS and resuspended in PI/Triton X-100 staining solution (10 ml 0.1% (v/v) Triton X-100 in PBS with 2 mg DNAse-free RNAse A and 0.4 ml of 500 μg/ml PI), followed by incubation at 4° C. for 30 min. Stained cells were analyzed on a FACSCalibur™ with the software CellQuest™ (BD Biosciences). Cell cycle analysis was conducted using the software ModFit LT, version 3.3 (Verity Software House Inc.).
Cells were identified by gating into the lymphocyte population, followed by single cell gating to exclude doublets and aggregates. This was followed by identification of the G0/G1 population and processing with the software ModFit LT, version 3.3 (Verity Software House Inc.) to calculate the percentage of cells in different cell cycles.

human neurons [1] = assay: Mitochondrial damage to neurons induced by rotenone; type: cell-based; conditions: rotenone 10 μM, drug 10 μM
Experimental: Human neurons were isolated from brain tissues of therapeutically aborted 15-20 week old fetuses, in accordance with ethics approval of the University of Calgary ethics committee, after written informed consent of the pregnant donors. Neurons were isolated as previously described (Vecil et al., 2000) brain specimens were washed in phosphate buffered saline (PBS) to remove blood, followed by removal of meninges. […] Thereafter, the digestion was stopped by addition of 4 ml fetal calf serum (FCS). The solution was filtered through a 132 μm filter and centrifuged (three times, 1,200 rpm, 10 min). Cells were cultured in feeding medium of minimal essential medium (MEM) supplemented with 10% fetal bovine serum (FBS), 1 μM sodium pyruvate, 10 μM glutamine, 1× non-essential amino acids, 0.1% dextrose and 1% penicillin/streptomycin (all culture supplements from Invitrogen, Burlington, Canada). […] For experiments, the neuron-enriched cultures were retrypsinized and cells were plated in poly-L-ornithine pre-coated 96-well plates at a density of 100,000 cells/well in 100 μl of the complete medium supplemented with cytosine arabinoside. […] All conditions were performed in quadruplicates. A day later cells were fixed using 4% paraformaldehyde (PFA) and stored in PBS in 4° C.
The iron stock solution was prepared using 27.8 mg iron(II) sulfate heptahydrate (FeSO4) (Sigma-Aldrich, Oakville, Canada), 10 μl of 17.8M sulfuric acid and 10 ml deionized distilled water. After filtering with a 0.2 μm filter, FeSO4 was added to cells in a final concentration of 25-50 μM in a volume of 50 μl medium to the cells. Rotenone was dissolved in dimethyl sulfoxide (DMSO) and used in a final concentration of 10 μM.

C57BL/6 mice [2] = assay: Histological analyses of the spinal cord of EAE mice (HE/LFB, Iba1, Bielschowsky); type: in vivo, mouse; conditions: 25 mg/kg IP from day 0
Text: Spinal cords and cerebella were removed. […] Cervical and lumbar cords were snap frozen.

[3] = tested on: Ifng, Tnfa, Il-17 and Ccl2 transcripts; assay: RT-PCR of inflammatory transcripts in lumbar spinal cord of EAE mice; type: in vivo, mouse; conditions: 25 mg/kg IP from day 0, sacrifice day 15
Experimental: Lumbar spinal cords were harvested, snap frozen in liquid nitrogen and stored in -80° C. Samples were homogenized in 1 ml Trizol followed by the addition of 200 μI chloroform. […] RNA was extracted using the RNeasy Mini Kit according to the manufacturer's instruction (Qiagen). RNA concentrations were measured using a Nanodrop (Thermo Fisher Scientific). cDNA preparation was performed using the RT2 First Strand kit (Qiagen) with 1μg of RNA according to the manufacturer's instructions. Real time PCR was performed using the QuantStudio 6 Flex (Applied Biosystems by Life Technologies) with FAST SYBR Green and primers for Gapdh (Qiagen) as housekeeping gene, lfn-γ (Qiagen, QT01038821), Tnfa (Qiagen, QT00104006), II-17 (SABiosciences, PPM03023A-200) and CcI2 (Qiagen, QT00167832). Relative expression was calculated using the ΔΔCT method with Gapdh as housekeeping gene. Data were normalized to gene expression in naïve mice.

T-cells = assay: Proliferation of T-lymphocytes (3H-thymidine) in anti-CD3/anti-CD28 activated splenocytes; type: cell-based, mouse; conditions: concentration response
C57BL/6 mice [4] = assay: MOG-EAE in C57BL/6 mice, clinical score; type: in vivo, mouse
human neurons [5] = assay: Iron (FeSO4) mediated neurotoxicity screening, MAP-2 positive neurons counted; type: cell-based
In short: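 Fetal human neurons (15-20 wk), plated with cytosine arabinoside, were pre-incubated 1 h with compounds (10 mM DMSO stocks) before FeSO4 at 25-50 μM final. Cells fixed a day later; MAP-2 immunostaining plus Hoechst nuclei imaged automatically, sites per well averaged; quadruplicates.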

[6] = 25 mg/kg IP from onset of clinical signs (day 13)

Structure (SMILES): CN(C)CCCN1c2ccccc2CCc2ccc(Cl)cc21 [CLOMIPRAMINE HYDROCHLORIDE]
- concentration from which cell cycle arrest is seen (more cells in G1, less in S-phase) (T-lymphocytes): 2 µM
- neurotoxicity by rotenone (mitochondrial damage) (human neurons [1]): trended towards a protective activity
- axonal damage (Bielschowsky stain) (C57BL/6 mice [2]): significantly less axonal damage
- histological score of the spinal cord (inflammation) (C57BL/6 mice [2]): 1.7
- microglial activation (Iba1 staining) (C57BL/6 mice [2]): prevented microglial activation
- elevation of transcripts encoding Ifng, Tnfa, Il-17 and Ccl2 in spinal cord [3]: abrogated
- concentration from which T-lymphocyte proliferation is significantly reduced (T-cells): 5 µM
- manifestations of clinical signs (C57BL/6 mice [4]; 25 mg/kg IP from day 0 (day of MOG induction)): completely suppressed
- delay of onset of clinical signs (C57BL/6 mice [4]; 25 mg/kg IP from day 5 after induction): 2 days
- clinical disability of first relapse, days 14-20 (C57BL/6 mice [4]; [6]): attenuated the marked rise in clinical disability
- second increase in clinical scores, days 42-50 (C57BL/6 mice [4]; [6]): prevented
- severity of the second relapse (C57BL/6 mice [4]; 25 mg/kg IP from remission after first relapse (day 31)): did not affect the severity of the second relapse
- viability at 10 µM (human neurons [5]; Homo sapiens, Neuron, drug 10 μM 1 h before FeSO4 25 or 50 μM, MAP-2 neurons after 24 h, read-out: Drug % control (mean): number of neurons normalized to untreated control): 107%
- concentration from which neuroprotection against iron toxicity is significant (human neurons [5]; concentration response): 100 nM
- Drug % control (mean): number of neurons normalized to untreated control (human neurons [5]; drug 10 μM 1 h before FeSO4 25 or 50 μM, MAP-2 neurons after 24 h, HYDROCHLORIDE): 107.30%
- protection from FeSO4-mediated neurotoxicity (in words) (human neurons [5]; drug 10 μM, human neurons): strong protection
